Source: patent US20070249607A1, “NK-1 AND SEROTONIN TRANSPORTER INHIBITORS” (Bristol-Myers Squibb Company, priority 2006, published 2007)
Where two headings read alike, the source gives them in different places.

Legend:
[1] = target: T1, human serotonin transporters (Homo sapiens, UniProt P31645); assay: Serotonin transporter binding assay ([3H]-citalopram competition, HEK-hSERT cell membranes)
T1 construct: expressed in transfected cells
Method: Serotonin transporter binding assay. HEK-293 cells that stably express human serotonin transporters (HEK-hSERT cells) were grown at 37° C. in 5% CO2 as a monolayer in medium consisting of EMEM supplemented with 10% fetal bovine serum and G418 sulfate (500 μg/ml). To prepare membranes for radioligand binding experiments, cells were rinsed twice with phosphate-buffered saline (138 mM NaCl, 4.1 mM KCl, 5.1 mM Na2PO4, 1.5 mM KH2PO4, 11.1 mM glucose, pH 7.4). Cells were transferred from plates to polypropylene tubes (16×100 mm), centrifuged at 1,200×g for 5 min and were frozen at −80° C. until assay. Following centrifugation, pellets were resuspended by homogenization in buffer consisting of 50 mM Tris (pH 7.7 at 25° C.), 120 mM NaCl and 5 mM KCl and then centrifuged at 32,000×g for 10 min. Following centrifugation, supernatants were discarded and pellets were resuspended in buffer consisting of 50 mM Tris (pH 7.4 at 25° C.), 150 mM NaCl and 5 mM KCl. Membrane homogenates (200 μl/plate) were incubated with 1 nM [^3H]-citalopram (specific activity=85 Ci/mmol) and increasing concentrations of test compounds for 1 hr at 25° C. in a total volume of 250 μl. The assay buffer consisted of 50 mM Tris (pH 7.4 at 25° C.), 120 mM NaCl and 5 mM KCl (pH 7.4 with conc. HCl). Plates were incubated for 1 hr at 25° C., then filtered through 0.5% PEI treated Whatman GF/B filters using a Brandel cell harvester. Filters were washed three times with 3 ml of ice-cold tris wash buffer. Non-specific binding was defined with 10 μM fluoxetine. Amount of radioligand bound in the presence and absence of competitor was analyzed by plotting (-)log drug concentration versus the amount of radioligand specifically bound. The midpoint of the displacement curve (IC50, nM), signifies the potency. Ki values can be calculated using the method of Cheng and Prusoff (Cheng and Prusoff, BiochemicalPharmacology, Vol 22, pp. 3099-3108, Pergamon Press (1973)).

[2] = target: T2, neurokinin-1 (NK-1) receptor (Homo sapiens, UniProt P25103); assay: NK-1 Binding assay ([125I] Substance P competition, U373 cell membranes); details: Table 2; U373 membranes, [125I] Substance P displacement; read-out: NK-1 IC50
T2 construct: a human glioblastoma-astrocytoma cell line that endogenously expresses the neurokinin-1 (NK-1) receptor; endogenous in cells; host or cells: U373 human glioblastoma-astrocytoma cells (membranes)
Method: NK-1 Binding assay. U373 cells, a human glioblastoma-astrocytoma cell line that endogenously expresses the neurokinin-1 (NK-1) receptor, were grown in a monolayer culture at 37° C. in 5% CO2 and fed with Minimum Essential Medium (MEM) supplemented with 10% fetal bovine serum. Membranes were prepared as follows: Cells were washed twice with ice-cold phosphate-buffered saline (pH 7.4) and then incubated for 5-10 minutes with ice-cold 10 mM Tris buffer (pH 7.4) containing 5 mM EDTA. Cells were removed from plates, homogenized, and centrifuged at 32,000×g for 20 minutes. The resulting supernatant was discarded, and the pellet resuspended by homogenization in 50 mM Tris buffer (pH 7.4) containing 1 mM EDTA and centrifuged at 32,000×g for 20 minutes. The resulting supernatant was discarded, and the pellet resuspended by homogenization in NK-1 binding assay buffer (50 mM Tris-HCL (pH 7.4), 3 mM MnCl2, 200 μg/ml BSA, 5 μg/ml chymostatin, 40 μg/ml bacitracin and 4 μg/ml leupeptin).
On the day of an experiment the membrane preparation was thawed, homogenized and diluted with NK-1 binding assay buffer to the appropriate concentration. […] Substance P, at a concentration of […], and concentrations of drugs ranging from 10000 to 0.01 nM. Samples were incubated for 30 min at 20° C. then filtered through GF/B glass fiber filters (pretreated with 1% polyethyleneimine and 0.3% Triton X-100) using a Brandel cell harvester. The filters were then washed with 10 ml ice cold 50 mM Tris-HCL (pH 7.4) containing 3 mM MgCl2. […] The amount of radioligand bound in the presence and absence of competitor was analyzed by plotting (-)log drug concentration versus the amount of radioligand specifically bound. The midpoint of the displacement curve (IC50, nM), signifies the potency.

[3] = Table 2, HEK-hSERT membranes, [3H]-citalopram displacement, read-out: SERT IC50

T2 sequence (P25103 whole entry): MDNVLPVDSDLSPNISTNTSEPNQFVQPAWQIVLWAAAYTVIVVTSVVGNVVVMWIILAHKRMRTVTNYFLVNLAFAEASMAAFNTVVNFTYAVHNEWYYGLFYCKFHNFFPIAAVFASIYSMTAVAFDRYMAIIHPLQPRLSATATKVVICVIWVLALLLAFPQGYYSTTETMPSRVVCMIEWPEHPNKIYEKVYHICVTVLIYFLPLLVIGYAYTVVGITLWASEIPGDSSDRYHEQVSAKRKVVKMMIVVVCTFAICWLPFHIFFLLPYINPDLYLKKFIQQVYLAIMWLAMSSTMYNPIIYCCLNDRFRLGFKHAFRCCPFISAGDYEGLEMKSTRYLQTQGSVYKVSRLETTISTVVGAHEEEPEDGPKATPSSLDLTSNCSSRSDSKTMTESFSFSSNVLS
T1 sequence (P31645 whole entry): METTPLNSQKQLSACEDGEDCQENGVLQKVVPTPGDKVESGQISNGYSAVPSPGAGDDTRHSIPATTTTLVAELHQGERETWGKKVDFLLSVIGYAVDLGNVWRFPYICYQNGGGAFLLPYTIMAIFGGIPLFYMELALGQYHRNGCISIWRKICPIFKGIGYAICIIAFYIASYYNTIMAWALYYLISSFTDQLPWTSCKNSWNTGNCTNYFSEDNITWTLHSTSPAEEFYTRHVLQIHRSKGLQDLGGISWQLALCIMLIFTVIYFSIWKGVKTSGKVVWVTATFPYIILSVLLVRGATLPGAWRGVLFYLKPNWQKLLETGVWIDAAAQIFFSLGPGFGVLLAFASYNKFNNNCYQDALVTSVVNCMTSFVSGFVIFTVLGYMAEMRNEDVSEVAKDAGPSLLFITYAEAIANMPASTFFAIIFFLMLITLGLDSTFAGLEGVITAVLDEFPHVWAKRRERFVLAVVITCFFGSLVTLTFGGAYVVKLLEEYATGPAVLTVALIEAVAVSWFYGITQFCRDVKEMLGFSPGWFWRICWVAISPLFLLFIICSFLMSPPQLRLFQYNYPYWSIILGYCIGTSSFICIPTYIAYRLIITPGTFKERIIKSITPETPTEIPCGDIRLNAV

IC50 [2]	IC50 [1, 3]	Compound	IC50 [1]
0.01 to 100 nM	0.01 to 100 nM	N#Cc1ccc(-c2cc(Cl)cc(COCC3(c4ccccc4)CCNCC3)c2)cc1	
0.01 to 100 nM	0.01 to 100 nM	N#Cc1ccc(-c2cc(C#N)cc(COCC3(c4ccccc4)CCNCC3)c2)cc1	
0.01 to 100 nM	100 to 300 nM	C[C@H](OCC1(c2ccccc2)CCNCC1)c1cc(-c2ccc(C#N)cc2)cc(C(F)(F)F)c1	
0.01 to 100 nM	0.01 to 100 nM	N#Cc1ccc(-c2cc(F)cc(COCC3(c4ccccc4)CCNCC3)c2)cc1	
> 300 nM	0.01 to 100 nM	Fc1ccc(-c2cc(F)cc(COCC3(c4ccccc4)CCNCC3)c2)cc1	
0.01 to 100 nM	0.01 to 100 nM	Fc1ccc(-c2cc(COCC3(c4ccc(F)cc4)CCNCC3)cc(C(F)(F)F)c2)cc1	
0.01 to 100 nM	0.01 to 100 nM	CC(OCC1(c2ccccc2)CCNCC1)c1cc(F)cc(-c2ccc(C#N)cc2)c1 (stereo not drawn)	
0.01 to 100 nM	0.01 to 100 nM	CC(OCC1(c2ccccc2)CCNCC1)c1cc(Cl)cc(-c2ccc(C#N)cc2)c1 (stereo not drawn)	
0.01 to 100 nM	0.01 to 100 nM	Cc1cc(COCC2(c3ccccc3)CCNCC2)cc(-c2ccc(C#N)cc2)c1	
> 300 nM	0.01 to 100 nM	CN(C)C(=O)c1cc(COCC2(c3ccccc3)CCNCC2)cc(-c2ccc(C#N)cc2)c1	
> 300 nM	0.01 to 100 nM	N#Cc1ccc(-c2cc(COCC3(c4ccccc4)CCNCC3)cc(C(=O)N3CCCCC3)c2)cc1	
> 300 nM	0.01 to 100 nM	N#Cc1ccc(-c2cc(COCC3(c4ccccc4)CCNCC3)cc(C(=O)N3CCOCC3)c2)cc1	
> 300 nM	0.01 to 100 nM	Oc1cc(COCC2(c3ccccc3)CCNCC2)cc(-c2ccc(F)cc2)c1	
0.01 to 100 nM	0.01 to 100 nM	N#Cc1cc(COCC2(c3ccccc3)CCNCC2)cc(-c2ccc(F)cc2)c1	
> 300 nM	0.01 to 100 nM	NC(=O)c1cc(COCC2(c3ccccc3)CCNCC2)cc(-c2ccc(F)cc2)c1	

Compound	IC50 [2]	IC50 [1, 3]	IC50 [1]
CN1CCC(COCc2cc(-c3ccc(Cl)cc3)cc(C(F)(F)F)c2)(c2ccccc2)CC1	0.01 to 100 nM		0.01 to 100 nM
COc1ccc(-c2cc(COCC3(c4ccccc4)CCN(C)CC3)cc(C(F)(F)F)c2)cc1	0.01 to 100 nM		0.01 to 100 nM
CN1CCC(COCc2cc(-c3ccc(F)cc3)cc(C(F)(F)F)c2)(c2ccccc2)CC1	0.01 to 100 nM		0.01 to 100 nM
CN1CCC(COCc2cc(-c3ccc(F)c(Cl)c3)cc(C(F)(F)F)c2)(c2ccccc2)CC1	0.01 to 100 nM		0.01 to 100 nM
CN1CCC(COCc2cc(-c3cccc(F)c3)cc(C(F)(F)F)c2)(c2ccccc2)CC1	0.01 to 100 nM		0.01 to 100 nM
CN1CCC(COCc2cc(-c3ccc(F)cc3F)cc(C(F)(F)F)c2)(c2ccccc2)CC1	0.01 to 100 nM		0.01 to 100 nM
COc1ccc(-c2cc(COCC3(c4ccccc4)CCN(C)CC3)cc(C(F)(F)F)c2)cc1F	0.01 to 100 nM		0.01 to 100 nM
CN1CCC(COCc2cc(F)cc(-c3ccc(C#N)cc3)c2)(c2ccccc2)CC1	0.01 to 100 nM		0.01 to 100 nM
CN1CCC(COCc2cc(F)cc(-c3ccc(F)cc3)c2)(c2ccccc2)CC1	100 to 300 nM		0.01 to 100 nM
CN1CCC(COCc2cc(-c3ccc(F)cc3)cc(C(F)(F)F)c2)(c2ccc(F)cc2)CC1	0.01 to 100 nM		0.01 to 100 nM
CCN1CCC(COCc2cc(-c3ccc(C#N)cc3)cc(C(F)(F)F)c2)(c2ccccc2)CC1	0.01 to 100 nM	> 300 nM	
N#Cc1ccc(-c2cc(COCC3(c4ccccc4)CCN(Cc4ccccc4)CC3)cc(C(F)(F)F)c2)cc1	0.01 to 100 nM	> 300 nM	
